Experiments:
[1] = test system: adult human ex vivo retinal explants; assay: AAV transduction of adult human ex vivo retinal explants, quantified by immunofluorescence; format: cell-based; conditions: CAG promoter, mean±s.d
Protocol: Finally, the inventors provided NIR sensitivity to in a blind human retina. They targeted rTRPV1 to adult human ex vivo retinal explants, kept alive in culture for eight weeks post mortem. Cultured retinas lose light sensitivity after 16 hours. Using a CAG promoter, a density of 2477±889 rTRPV1 positive photoreceptors was achieved per mm^2 of explant tissue (mean±s.d). 94.5±4.2% of rTRPV1 positive cells were photoreceptors (n=2583 rTRPV1 positive cells mm^−2, n=2477 rTRPV1 positive photoreceptors mm^−2, mean±s.d).
Human retinal tissue was obtained after corneal tissue harvest from adult multi-organ donors with no reported history of eye disease, n=2 eyes from n=2 donors. […] Light responses were recorded from samples 8 weeks post-mortem. […]
(§1) A Zeiss LSM 700 laser scanning confocal microscope was used to acquire images of antibody stained cells and tissues with an EC Plan-Neofluar 40×/1.30 oil M27 objective at up to 4 excitation laser lines according to secondary antibody specification. Expression was assessed from 1024×1024 pixel images in a z-stack with 0.75 μm steps. […] AAV transduction was quantified from retinal wholemounts. […] Quantification was performed separately for outer nuclear layer, inner nuclear layer and ganglion cell layer.

[2] = test system: cone photoreceptors of the rd1 mouse; assay: AAV transduction of rd1 mouse cones after subretinal injection, quantified by immunofluorescence and confocal imaging; format: in vivo
Excerpt: The inventors targeted rTRPV1 to cone photoreceptors of the Pde6brd1 (known as rd1) mouse via subretinal injection of adeno-associated virus (AAV) and a photoreceptor-specific promoter (mCar) to restrict expression. Rd1 mice have severe photoreceptor degeneration with complete loss of rod and dysfunctional light-insensitive cone photoreceptors by four weeks of age postnatal (P28). 55±10% of rd1 cones expressed rTRPV1 in the cell membrane (n=12,813 cones mm−2, n=7042 TRPV1 positive cones mm−2, mean±s.d). 98±1.6% of rat TRPV1 positive cells were cones (n=7216 TRPV1 positive cells mm−2, n=7042 TRPV1 positive cones mm−2, mean±s.d).
Ocular injections to deliver AAVs expressing TRP variants and/or functionalized nanorods were performed on 4 week old mice anesthetized with 2.5% isoflurane. A small incision was made with a sharp 30 gauge needle at the nasal corneo-scleral junction and AAV and/or nanorods were co-injected through this incision into the subretinal space using a blunt 5 μL Hamilton syringe held in a micromanipulator. For cone photoreceptor activity monitoring, cone specific AAV-ProA7-GCaMP6s (11) was co-injected subretinally with rTRPV1 and/or nanorods. A maximum volume of 2.5 μL was administered per eye. For primary visual cortex activity monitoring, AAV-pCAG-FLEX2-tTA2 was delivered by intravenous retro-orbital injection as previously described by D. Hillier et al. Nat Neurosci 20, 960-968 (2017) 2 weeks after initial ocular injection of rTRPV1 and nanorods. […]
as §1

[3] = AAV, mCar promoter, subretinal injection, mean±s.d

**Q.** For “TRPV1.465-6x-His: rat TRPV1 channel with 6x-His epitope tag inserted in the first extracellular loop after amino acid 465; delivered by AAV”, which “density of rTRPV1 positive photoreceptors” value ([1]; explant tissue) is on record?
**A.** 2477±889 per mm^2

**Q.** And the “rTRPV1 positive cells that were photoreceptors” value [1]?
**A.** 94.5±4.2%

**Q.** And the “channel (TRPV1 or Ollas) positive cells that were cones” value [2, 3]?
**A.** 98±1.6%

**Q.** And the “rd1 cones expressing the channel in the cell membrane” value [2, 3]?
**A.** 55±10%

**Q.** What about the “expression of the 6x-His tag in TRPV1 positive cones” value ([2]; rd1 mouse) of the same substance?
**A.** All TRPV1 positive cones expressed the 6x-His tag
